In experiment [1] the test system is myelopoietic cells. As to conditions: in vitro; cited from earlier work.
Experiment [2] deals with myelopoietic cells. Conditions: in vivo; cited from earlier work.
A further experiment deals with human CFU-gm. As to conditions: human CFU-gm in vitro; cited from earlier work.
Another experiment relates to murine CFU-gm. Conditions: murine CFU-gm in vitro; cited from earlier work.
The test system of experiment [3] is murine myelopoietic cells. Conditions: in vivo; cited from earlier work.
Experiment [4] concerns human bone marrow stromal cell line, C6. As to the kind of experiment: Induction of colony stimulating activity by stromal cells; supernatant tested in soft agar assay (CFU-C). The format is cell-based. As to conditions: 5% Supernatant, Lewis rat bone marrow cells. As to the method: The human bone marrow stromal cell line, C6, is grown to confluency in plastic tissue culture dishes in RPMI-1640 medium and 5% FBS. On the day prior to the experiment this medium is changed to DMEM without added serum. To these cultures, the compounds are added for one hour, then washed from the cultures. The medium is replaced with fresh DMEM and the cells are incubated for 24 hours at 37°C, 5% CO₂. After 24 hours the C6 cell culture supernatant is collected, sterile filtered, and frozen until it can be assayed for the presence of hematopoietic colony stimulating activity (CSA) as set forth below.
Bone marrow cells are obtained from Lewis rats. They are adjusted to 10⁶ cells/ml in DMEM without serum. A single later agar system utilizing the following is used: DMEM enriched with nutrients (NaHCO₃, pyruvate, amino acids, vitamins, and HEPES buffer); 0.3% Bacto agar, and 20% Lewis rat serum. To this are added dilutions of C6 cell line supernatant (10-2.5%) from above along with rat bone marrow cells (final concentration = 10⁵ cells/ml). The agar plates are incubated at 37°C, 5% CO₂ for 7-8 days. Colonies of proliferating bone marrow cells (CFU-C) are counted utilizing a microscope. The number of agar colonies counted is proportional to the amount of CSA present within the C6 bone marrow stromal cell line supernatant.

Like-named read-outs stand apart in the source and are kept apart here. Square brackets hold non-standard residues; d marks the D form. Ends that are not written are not given here. pGlu = O=C1CC[C@@H](C(=O)O)N1

For the substance pGlu-Glu-Asp-Cys-Lys ([pGlu]EDCK), the “effect on myelopoietic cells” value with myelopoietic cells [1] and with myelopoietic cells [2] was “selective inhibitory effect” in each case.
On to “HP-5: oxidation product of pGlu-Glu-Asp-Cys-Lys, a dimer formed by disulfide bridges (EP-A-0267741) ([pGlu]EDCK; also: disulfide-linked dimer (oxidation product))”, for which the “colony formation of CFU-gm” value with human CFU-gm and in the experiment with murine CFU-gm was “strongly stimulates colony formation” throughout. In addition, the “effect on murine myelopoietic cells” value in experiment [3] is “up regulates murine myelopoietic cells”.
In the case of (pGlu-Glu-Asp)₂-Sub-(Lys)₂ [Example 2], the “Hematopoietic Colony Stimulating Activity, Percent of Control” value in experiment [4] (Dose 0.01 ng/ml) was 97% of Control; in experiment [4] (Dose 0.1 ng/ml) it was 154% of Control; in experiment [4] (Dose 1 ng/ml), 188% of Control; in experiment [4] (Dose 10 ng/ml), 207% of Control; in experiment [4] (Dose 100 ng/ml), 241% of Control; in experiment [4] (Dose 1000 ng/ml), 192% of Control.
